The values below are quoted from earlier work in US20180355410A1, “DIAGNOSIS AND TREATMENT OF INFECTIOUS DISEASE” (Cambridge Enterprise Limited, priority 2015, published 2018).

Bounds are passed on as bounds.

The test system of the series is Neisseria gonorrhoeae. To be noted: EUCAST clinical breakpoint valid from 1st January 2015.

On to `CC[C@H]1OC(=O)[C@H](C)[C@@H](O[C@H]2C[C@@](C)(OC)[C@@H](O)[C@H](C)O2)[C@H](C)[C@@H](O[C@@H]2O[C@H](C)C[C@H](N(C)C)[C@H]2O)[C@](C)(O)C[C@@H](C)CN(C)[C@H](C)[C@@H](O)[C@]1(C)O` [Azithromycin], for which the “MIC R-breakpoint (resistant)” value was greater than 0.5 µg/mL and the “MIC S-breakpoint (susceptible)” value was no more than 0.25 µg/mL.
